From a compilation of properties of binary mixtures (doi:10.1021/je00020a016)

Experiment: excess molar enthalpy (molar enthalpy of mixing); xn = mol fraction of the nth substance listed
Conditions: 100 kPa

CCOC(=O)OCC + CC1COC(=O)O1
excess molar enthalpy [kcal/mol]
Conditions	298.15 K	313.15 K
x2 = 0.0482	–	0.0351
x2 = 0.0668	0.033	–
x2 = 0.0919	–	0.0559
x2 = 0.1066	0.0504	–
x2 = 0.1518	0.0631	–
x2 = 0.1528	–	0.0698
x2 = 0.1926	0.07	–
x2 = 0.1933	–	0.0755
x2 = 0.2623	0.0784	–
x2 = 0.2644	–	0.0846
x2 = 0.3231	0.0593	–
x2 = 0.4172	0.0605	–
x2 = 0.4183	–	0.0915
x2 = 0.4884	0.0822	–
x2 = 0.4895	–	0.0894
x2 = 0.5888	0.0765	–
x2 = 0.6824	0.066	–
x2 = 0.742	0.0583	0.0607
x2 = 0.8118	0.0452	–
x2 = 0.8519	0.0373	0.0387
x2 = 0.8962	0.0263	0.0284
x2 = 0.9452	0.0139	0.0151
x2 = 0.9718	0.00765	0.00789

CC1COC(=O)O1 (stereo not drawn) + COC(=O)OC
Conditions	excess molar enthalpy [kcal/mol]
298.15 K, x1 = 0.0474	0.0131
298.15 K, x1 = 0.0905	0.0203
298.15 K, x1 = 0.1106	0.0227
298.15 K, x1 = 0.1428	0.0253
298.15 K, x1 = 0.1993	0.0272
298.15 K, x1 = 0.2491	0.0272
298.15 K, x1 = 0.3989	0.0244
298.15 K, x1 = 0.4988	0.0217
298.15 K, x1 = 0.5989	0.0184
298.15 K, x1 = 0.6656	0.0158
298.15 K, x1 = 0.7491	0.0127
298.15 K, x1 = 0.7993	0.0103
298.15 K, x1 = 0.8566	0.00741
298.15 K, x1 = 0.8884	0.0055
298.15 K, x1 = 0.9228	0.00382
298.15 K, x1 = 0.9598	0.00191
313.15 K, x1 = 0.0658	0.0217
313.15 K, x1 = 0.1429	0.0284
313.15 K, x1 = 0.2001	0.0296
313.15 K, x1 = 0.2502	0.0294
313.15 K, x1 = 0.3335	0.0284
313.15 K, x1 = 0.4002	0.0268
313.15 K, x1 = 0.5002	0.0232
313.15 K, x1 = 0.6003	0.0191
313.15 K, x1 = 0.6669	0.0167
313.15 K, x1 = 0.7502	0.0129
313.15 K, x1 = 0.8001	0.0108
313.15 K, x1 = 0.8563	0.00813
313.15 K, x1 = 0.889	0.00598
313.15 K, x1 = 0.96	0.00215

CCOC(=O)OCC + COC(=O)OC
excess molar enthalpy [kcal/mol]
Conditions	298.15 K	313.15 K
x2 = 0.0565	0.00765	0.00645
x2 = 0.107	0.0148	–
x2 = 0.1522	–	0.0179
x2 = 0.1932	–	0.0213
x2 = 0.1934	0.0234	–
x2 = 0.2643	–	0.0272
x2 = 0.3241	0.0349	–
x2 = 0.4181	–	0.0368
x2 = 0.4892	–	0.0387
x2 = 0.5896	–	0.0387
x2 = 0.6831	–	0.0349
x2 = 0.6834	0.0373	–
x2 = 0.7418	–	0.0315
x2 = 0.7421	0.0335	–
x2 = 0.8117	–	0.0265
x2 = 0.8119	0.027	–
x2 = 0.8518	–	0.021
x2 = 0.8962	0.017	–
x2 = 0.8995	–	0.0158
x2 = 0.92	–	0.0124
x2 = 0.9201	0.0141	–
x2 = 0.9453	0.00932	–
x2 = 0.9718	–	0.00454
x2 = 0.9719	0.00478	–
